Source: patent publication US20170058314A1, “NOVEL METHODOLOGY FOR IDENTIFYING ANTI-PERSISTER ACTIVITY AND ANTIMICROBIAL SUSCEPTIBILITY FOR BORRELIA BURGDORFERI AND OTHER BACTERIA” (priority 2014, published 2017)
≈ marks a conversion by molar mass, not a printed value. Where a name gives a salt, the structure may show the parent alone. Read-outs that look alike come from different tables or passages of the source. Starred links: 1 amine or outer side, 2 acyl side, 3 side chain; linkers in the order of their positions; H or OH if unused. Positions of bridges follow the written chain, without caps; N, C: chain ends. Non-standard residues stand in square brackets, D forms with d. Residues, ends and D or L forms follow the SMILES beside them. Chains are numbered I, II in the order given. Actinocin(9to1) = Cc1c2oc3c(C)ccc(C(=O)[*:1])c3nc-2c(C(=O)[*:2])c(N)c1=O; NMeV = CN[C@H](C(=O)O)C(C)C; Sar = CNCC(=O)O

Key:
[1] = test system: stationary phase B. burgdorferi persisters (strain B31); assay: NCI compound library rescreen, epifluorescence microscope counting; conditions: for Residual viable cells (%) 20 μM (epifluorescence microscope counting) / Residual viable cells (%) 50 μM (epifluorescence microscope counting): seven day old stationary phase; for Residual viable cells (%) 20 μM (epifluorescence microscope counting) / Residual viable cells (epifluorescence microscope counting) / Residual viable cells (%) 50 μM (epifluorescence microscope counting): 7 days; for Residual viable cells (epifluorescence microscope counting) / Residual viable cells (%) 50 μM (epifluorescence microscope counting): 50 μM; for Residual viable cells (epifluorescence microscope counting): seven day old stationary phase culture; for viability at 50 µM / viability at 20 µM: Borreliella burgdorferi, 168 h; for Activity against persisters (residual viable cell percentage): stationary phase persisters; for viability at 20 µM: read-out: Residual viable cells (%) 20 μM (epifluorescence microscope counting)
[2] = test system: stationary phase B. burgdorferi persisters (strain B31); assay: NCI compound library screen, SYBR Green I/PI assay (plate reader); conditions: for Residual viable cells (%) 20 μM (SYBR Green I/PI assay): seven day old stationary phase; for Residual viable cells (%) 20 μM (SYBR Green I/PI assay) / Residual viable cells (SYBR Green I/PI assay): 7 days; for Residual viable cells (SYBR Green I/PI assay): 50 μM, seven day old stationary phase culture; for viability at 50 µM / viability at 20 µM: Borreliella burgdorferi, 168 h; for viability at 20 µM: read-out: Residual viable cells (%) 20 μM (SYBR Green I/PI assay)
[3] = test system: B. burgdorferi (growing, strain B31); assay: MIC determination, standard microdilution method; type: cell-based, Borrelia burgdorferi
[4] = read-out: Residual viable cells (epifluorescence microscope counting)
[5] = read-out: Residual viable cells (SYBR Green I/PI assay)
[6] = read-out: Residual viable cells (%) 50 μM (epifluorescence microscope counting)
[7] = Borreliella burgdorferi, growing B. burgdorferi, read-out: MIC
[8] = read-out: Activity against persisters (residual viable cell percentage)

What does the source list for “Benzoic acid, 2-hydroxy-, (2,6-pyridinediyldiethylidyne)dihydrazide, nickel complex [NSC617570]”?
Residual viable cells (%) 20 μM (epifluorescence microscope counting) [1]: 50%; Residual viable cells (epifluorescence microscope counting) [1]: 38%; Residual viable cells (%) 50 μM (epifluorescence microscope counting) [1]: 38%; Residual viable cells (%) 20 μM (SYBR Green I/PI assay) [2]: 66%; Residual viable cells (SYBR Green I/PI assay) [2]: 44%

How did the viability at 50 µM [1, 4] turn out when `C=CCNc1ncnc2sc(SC)nc12` [NSC343783, N-Allyl-2-(methylthio)[1,3]thiazolo[5,4-d]pyrimidin-7-amine] was run?
The viability at 50 µM was 20%.

What about the viability at 50 µM [2, 5] of the same molecule?
Its viability at 50 µM is 67%.

Which results are given for `Cc1c2oc3c(C)ccc(C(=O)N[C@@H]4C(=O)N[C@H](C(C)C)C(=O)N5CCC[C@H]5C(=O)N(C)CC(=O)N(C)[C@@H](C(C)C)C(=O)O[C@@H]4C)c3nc-2c(C(=O)N[C@@H]2C(=O)N[C@H](C(C)C)C(=O)N3CCC[C@H]3C(=O)N(C)CC(=O)N(C)[C@@H](C(C)C)C(=O)O[C@@H]2C)c(N)c1=O` [NSC3053, Dactinomycin] (I: T[dV]P[Sar][NMeV] / II: T[dV]P[Sar][NMeV]; ester I:1-I:C, II:1-II:C; linker I:N-II:N via Actinocin(9to1))?
MIC ([3]; growing B. burgdorferi, listed as Dactinomycin): ≦0.78 μg/mL; MIC ([3]; growing B. burgdorferi, listed as dactinomycin): ≤ 0.78 µg/mL; Residual viable cells (epifluorescence microscope counting) [1]: 30%; Activity against persisters (residual viable cell percentage) [1]: 30%; Residual viable cells (SYBR Green I/PI assay) [2]: 37%

Which viability at 20 µM [1] does the source give for `NC(=O)OCC1=C(COC(N)=O)C(=O)c2c(O)ccc(O)c2C1=O` [NSC224124, (5,8-dihydroxy-1,4-dioxo-1,4-dihydronaphthalene-2,3-diyl)dimethanediyl dicarbamate] here?
The viability at 20 µM was 77%.

What about the viability at 50 µM [1, 6] of the same molecule?
The viability at 50 µM was 31%.

What about the viability at 50 µM [1, 4] of the same molecule?
Its viability at 50 µM is 31%.

And the viability at 20 µM [2]?
The viability at 20 µM was 54%.

What about the viability at 50 µM [2, 5] of the same molecule?
Its viability at 50 µM is 32%.

What does the source list for `Cc1ccc(NCCN(C)C)c2c(=O)c3cc(O)ccc3sc12` [NSC317003, 9H-Thioxanthen-9-one, 1-[[2-(dimethylamino)ethyl]amino]-7-hydroxy-4-methyl-, monohydriodide]?
viability at 50 µM [1, 4]: 30%; viability at 50 µM [2, 5]: 29%

With `CC1Oc2cc3c(-c4c(O)cc(O)c5c(O)c6c(cc45)OC(C)C(C)C6=O)c(O)cc(O)c3c(O)c2C(=O)C1C` (stereo not drawn) [NSC345647, Chaetochromin] as the molecule, how does the MIC [3, 7] read?
Its MIC is 2.74 to 5.47 µg/mL (≈ 5.01 to 10 µM).

And the viability at 50 µM [1, 8]?
Its viability at 50 µM is 22%.

What about the viability at 20 µM [1] of the same molecule?
Its viability at 20 µM is 33%.

And the viability at 50 µM [1, 6]?
The viability at 50 µM was 22%.

And the viability at 50 µM [1, 4]?
Its viability at 50 µM is 22%.

What about the viability at 20 µM [2] of the same molecule?
The viability at 20 µM was 31%.

What about the viability at 50 µM [2, 5] of the same molecule?
The viability at 50 µM was 8%.

Nogalamycin [NSC70845] was tested. Which “Residual viable cells (%) 20 μM (epifluorescence microscope counting)” value [1] did it give?
The value was 15%.

And the “Residual viable cells (epifluorescence microscope counting)” value [1]?
The value was 15%.

And the “Residual viable cells (%) 50 μM (epifluorescence microscope counting)” value [1]?
Its value is 15%.

And the “Residual viable cells (%) 20 μM (SYBR Green I/PI assay)” value [2]?
Its value is 3%.

What about the “Residual viable cells (SYBR Green I/PI assay)” value [2] of the same molecule?
Its value is 0%.

What does the source list for `CC[C@@]1(O)C[C@H](O[C@H]2C[C@H](N(C)C)[C@H](O)[C@H](C)O2)c2c(cc3c(c2O)C(=O)c2c(O)ccc(O)c2C3=O)[C@H]1C(=O)OC` [NSC267229, Pyrromycin]?
MIC ([3]; growing B. burgdorferi): 0.37 to 0.73 µg/mL; Residual viable cells (%) 20 μM (epifluorescence microscope counting) [1]: 20%; Residual viable cells (epifluorescence microscope counting) [1]: 21%; Residual viable cells (%) 50 μM (epifluorescence microscope counting) [1]: 21%; Activity against persisters (residual viable cell percentage) [1]: 21%; Residual viable cells (%) 20 μM (SYBR Green I/PI assay) [2]: 6%; Residual viable cells (SYBR Green I/PI assay) [2]: 0%

Which results are given for `Cc1cc(O)c2c(c1)C(=O)c1cc(O)cc(O)c1C2=O` [NSC408120, Emodin]?
viability at 50 µM [1, 4]: 31%; viability at 50 µM [2, 5]: 18%

Which results are given for `O=C1c2ccccc2C(=O)c2c(NCCNCCO)ccc(O)c21` [NSC299187, 9,10-Anthracenedione, 1-hydroxy-4-[[2-[(2-hydroxyethyl)amino]ethyl]amino]-]?
MIC [3, 7]: 3.26 to 6.52 µg/mL (≈ 9.99 to 20 µM); viability at 50 µM [1, 8]: 13%; viability at 50 µM [1, 4]: 13%; viability at 50 µM [2, 5]: 5%

How did the viability at 50 µM [1, 4] turn out when `N=C(Nc1nc(-c2ccccn2)cc2ccccc12)c1ccccn1` [NSC637578, N-[3-(2-Pyridyl)isoquinolin-1-yl]-2-pyridinecarboxamidine] was run?
Its viability at 50 µM is 26%.

What about the viability at 50 µM [2, 5] of the same molecule?
Its viability at 50 µM is 46%.

Which MIC [3, 7] does the source give for `COc1cccc2c1C(=O)c1c(O)c3c(c(O)c1C2=O)C[C@@](O)(/C(C)=N\O)C[C@@H]3OC1CC(N)C(O)C(C)O1.Cl` (stereo partly drawn) [NSC143491, Daunomycin 3-oxime hydrochloride] here?
The MIC was ≤ 0.36 µg/mL.

What about the viability at 50 µM [1, 8] of the same molecule?
The viability at 50 µM was 6%.

What about the viability at 50 µM [1, 4] of the same molecule?
Its viability at 50 µM is 6%.

What about the viability at 50 µM [2, 5] of the same molecule?
Its viability at 50 µM is 0%.

Which results are given for `O=C1c2cccc(NCCCNCCO)c2C(=O)c2cccc(NCCCNCCO)c21` [NSC363998, Anthracene-9,10-dione, 1,5-bis[3-[[(2-hydroxyethyl)amino]propyl]amino]-9,10-dihydro-, dihydrochloride]?
viability at 20 µM [1]: 14%; viability at 50 µM [1, 6]: 13%; viability at 50 µM [1, 4]: 13%; viability at 20 µM [2]: 22%; viability at 50 µM [2, 5]: 0%

For `CO[C@@]12[C@H](COC(N)=O)C3=C(C(=O)C(C)=C(N)C3=O)N1C[C@@H]1N[C@@H]12` [NSC26980, Mitomycin], which MIC ([3]; Borreliella burgdorferi) is on record?
The MIC was ≤ 0.21 µg/mL.

What about the MIC ([3]; growing B. burgdorferi) of the same molecule?
The MIC was “≦0.21 μg/mL”.

And the viability at 50 µM [1, 8]?
The viability at 50 µM was 25%.

And the viability at 50 µM [1, 4]?
The viability at 50 µM was 25%.

And the viability at 50 µM ([2]; read-out: Residual viable cells (SYBR Green I/PI assay), 50 μM, seven day old stationary phase culture, 7 days)?
Its viability at 50 µM is 20%.
